Among the data in PMC3895568, “Isolation and characterization of Leucine dehydrogenase from a thermophilic Citrobacter freundii JK-91strain Isolated from Jask Port” (Iranian Journal of Microbiology, 2013) are Km values, retold here.

In this assay the test system is T1, LeuDH (Leucine dehydrogenase, EC 1.4.1.9).
T1 construct: native enzyme purified from isolate JK-91 (ammonium sulfate, DEAE-Toyopearl, TSK gel G3000SW); subunit 40 kDa, about 320 kDa, octamer
In words: NADH formation at […] nm, oxidative deamination. Type of assay: biochemical, Citrobacter freundii. The note with it: co-substrate NAD+; standard assay 50 mM glycine-NaOH pH 10.4, 100 mM NaCl, 2.5 mM NAD+; exact conditions and temperature of the kinetics not stated.

Structures are written as SMILES.

The term Km denotes the substrate concentration at which the rate is half of its maximum. `CC(C)C[C@H](N)C(=O)O` [L-leucine]: the Michaelis constant (Km) was determined as 1.2 mM.
